Measured values as given in US20240197756A1, “METHODS OF TREATMENT WITH NEUROACTIVE STEROIDS” (priority 2021, published 2024).

What was measured:
harmaline-induced tremor = experiment: rHIT model, coadministration of Compound 1 and Compound 2; assay type: in vivo, rat; details: Compound 2 p.o. 60 min before harmaline
Procedure: Rat Harmaline Induced Tremor (rHIT): The rHIT model was used to assess the impact of the combination of Compound 1 and Compound 2 on reducing the symptoms of tremor. Male SD rats (SLAC, Shanghai, China) weighing about 250 g at the time of testing were housed in a 12:12 light-dark cycle room throughout the study, with the lights on from 5 a.m. to 5 p.m, and fed ad libitum. […]
The rHIT methods described in Example 5 were used. […] After the 20-minute baseline recording, rats were dosed with harmaline and the post-harmaline effect was measured for 20 minutes. […]

[1] = tested on: GABAA receptors in the brain; details: cited from earlier work; for power of the alpha-band frequency (qEEG): comparator GABAA PAMs, previously shown (FIG. 7); for beta-band frequency (qEEG): comparator marketed GABAA PAMs, previously shown
[2] = tested on: extrasynaptic form of GABAA receptors; details: cited from earlier work
[3] = Khodadoustan et al. (2017); cited from earlier work

Compound | power of the alpha-band frequency (qEEG) [1] | beta-band frequency (qEEG) [1] | further results
CC(C)(C)NC(=O)CN1CCC(CNC(=O)c2cc(F)cc(Cl)c2)CC1 [Compound 2, N-((1-(2-(tert-butylamino)-2-oxoethyl)piperidine-4-yl)methyl)-3chloro-5-fluorobenzamide] |  |  | effect on tremor (harmaline-induced tremor): tremor-reducing effects
CC(=O)[C@H]1CC[C@H]2[C@@H]3CC[C@H]4C[C@H](O)CC[C@]4(C)[C@H]3CC[C@]12C [allopregnanolone] | decrease | Increases | potency at synaptic and extrasynaptic receptors [2]: equipotent
CCOC(=O)C1=C(COCCN)NC(C)=C(C(=O)OC)C1c1ccccc1Cl (centres unmarked) [amlodipine besylate] |  |  | Cmax, evening administration compared to morning dosing [3]: increased; Tmax, evening administration compared to morning dosing [3]: reduced
O=C1Nc2ccc(Cl)cc2C(c2ccccc2Cl)=NC1O (centres unmarked) [lorazepam] | decrease | Increases | 
